The test has as its target T1, human TLR9 (Homo sapiens, UniProt Q9NR96).
T1 sequence (Q9NR96 26-1032): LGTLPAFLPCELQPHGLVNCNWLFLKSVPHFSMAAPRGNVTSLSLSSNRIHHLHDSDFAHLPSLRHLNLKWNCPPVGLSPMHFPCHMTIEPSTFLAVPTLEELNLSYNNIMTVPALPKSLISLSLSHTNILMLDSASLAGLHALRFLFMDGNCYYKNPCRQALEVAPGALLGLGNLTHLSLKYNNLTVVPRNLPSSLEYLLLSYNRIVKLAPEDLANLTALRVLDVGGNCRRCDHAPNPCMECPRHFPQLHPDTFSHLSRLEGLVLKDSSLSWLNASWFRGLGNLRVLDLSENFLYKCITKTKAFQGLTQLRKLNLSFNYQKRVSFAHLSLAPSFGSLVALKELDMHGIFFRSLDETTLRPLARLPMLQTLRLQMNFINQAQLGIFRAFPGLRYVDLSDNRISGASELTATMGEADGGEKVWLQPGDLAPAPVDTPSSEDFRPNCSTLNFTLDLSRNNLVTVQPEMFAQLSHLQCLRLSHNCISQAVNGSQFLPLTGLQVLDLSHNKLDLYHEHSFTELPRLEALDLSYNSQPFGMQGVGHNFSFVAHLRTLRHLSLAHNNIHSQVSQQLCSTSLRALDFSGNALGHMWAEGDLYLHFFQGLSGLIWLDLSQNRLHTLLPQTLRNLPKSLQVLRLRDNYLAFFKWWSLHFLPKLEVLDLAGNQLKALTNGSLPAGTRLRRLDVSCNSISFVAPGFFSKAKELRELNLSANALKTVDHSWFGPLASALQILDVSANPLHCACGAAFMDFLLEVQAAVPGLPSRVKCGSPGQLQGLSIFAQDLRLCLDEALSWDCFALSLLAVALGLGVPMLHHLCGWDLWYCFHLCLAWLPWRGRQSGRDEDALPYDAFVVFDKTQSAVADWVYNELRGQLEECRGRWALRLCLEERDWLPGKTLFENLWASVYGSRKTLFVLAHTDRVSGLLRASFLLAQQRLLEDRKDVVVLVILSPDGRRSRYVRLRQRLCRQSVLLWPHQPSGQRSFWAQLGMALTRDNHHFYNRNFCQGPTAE
As to the kind of experiment: HEK293-Blue-hTLR-9 cells assay (SEAP reporter, ODN2006 stimulation). In kind it is cell-based. The following applies: HEK293-Blue-hTLR-9 cells, ODN2006 ligand, 20 hrs incubation; read-out: TLR9 IC50. The procedure:
The following tests were carried out in order to determine the activity of the compounds of formula (I) in HEK293-Blue-hTLR-7/8/9 cells assay.
HEK293-Blue-hTLR-9 Cells Assay:
A stable HEK293-Blue-hTLR-9 cell line was purchased from InvivoGen (Cat. #: hkb-htlr9, San Diego, California, USA). These cells were originally designed for studying the stimulation of human TLR9 by monitoring the activation of NF-κB. A SEAP (secreted embryonic alkaline phosphatase) reporter gene was placed under the control of the IFN-β minimal promoter fused to five NF-κB and AP-1-binding sites. The SEAP was induced by activating NF-κB and AP-1 via stimulating HEK-Blue hTLR9 cells with TLR9 ligands. Therefore the reporter expression was declined by TLR9 antagonist under the stimulation of a ligand, such as ODN2006 (Cat. #: tlrl-2006-1, Invivogen, San Diego, California, USA), for incubation of 20 hrs. The cell culture supernatant SEAP reporter activity was determined using QUANTI-Blue™ kit (Cat. #: rep-qb1, Invivogen, San Diego, California, USA) at a wavelength of 640 nm, a detection medium that turns purple or blue in the presence of alkaline phosphatase.
HEK293-Blue-hTLR9 cells were incubated at a density of 250,000˜450,000 cells/mL in a volume of 170 μL in a 96-well plate in Dulbecco's Modified Eagle's medium (DMEM) containing 4.5 g/L glucose, 50 U/mL penicillin, […], 2 mM L-glutamine, 10% (v/v) heat-inactivated fetal bovine serum with addition of 20 μL test compound in a serial dilution in the presence of final DMSO at 1% and 10 μL of 20 uM ODN2006 in above DMEM, perform incubation under 37° C. in a CO2 incubator for 20 hrs. Then 20 μL of the supernatant from each well was incubated with 180 μL Quanti-blue substrate solution at 37° C. for 2 hrs and the absorbance was read at 620˜655 nm using a spectrophotometer. The signalling pathway that TLR9 activation leads to downstream NF-κB activation has been widely accepted, and therefore similar reporter assay was modified for evaluating TLR9 antagonist.
Regarding `C[C@@H]1CN(c2ccc(C#N)n3nccc23)C[C@H](C(=O)NC2CCN(C)CC2)O1` [Example 1, (2R,6R)-4-(7-cyanopyrazolo[1,5-a]pyridin-4-yl)-6-methyl-N-(1-methyl-4-piperidyl)morpholine-2-carboxamide], the IC50 was determined as 15 µM. `C[C@@H]1CN(c2ccc(C#N)n3nccc23)C[C@H](C(=O)N[C@H]2CNC[C@H]2F)O1` [Example 2, (2R,6R)-4-(7-cyanopyrazolo[1,5-a]pyridin-4-yl)-N-[(3S,4R)-4-fluoropyrrolidin-3-yl]-6-methyl-morpholine-2-carboxamide]: the IC50 is > 100 µM. Next, `C[C@@H]1CN(c2ccc(C#N)n3nccc23)C[C@H](C(=O)NC2CC3(CNC3)C2)O1` [Example 3, (2R,6R)-N-(2-azaspiro[3.3]heptan-6-yl)-4-(7-cyanopyrazolo[1,5-a]pyridin-4-yl)-6-methyl-morpholine-2-carboxamide]: 36 µM.

For `C[C@@H]1CN(c2ccc(C#N)n3nccc23)C[C@H](C(=O)NC2CCOCC2)O1` [Example 4, (2R,6R)-4-(7-cyanopyrazolo[1,5-a]pyridin-4-yl)-6-methyl-N-tetrahydropyran-4-yl-morpholine-2-carboxamide], the IC50 is > 100 µM. Take `C[C@@H]1CN(c2ccc(C#N)n3nccc23)C[C@H](C(=O)NC2CNC[C@H]2F)O1` (stereo partly drawn) [Example 5, Cis-(2R,6R)-4-(7-cyanopyrazolo[1,5-a]pyridin-4-yl)-6-methyl-N-(4-fluoropyrrolidin-3-yl) morpholine-2-carboxamide]: the IC50 was 77 µM. For `C[C@@H]1CN(c2ccc(C#N)n3nccc23)C[C@H](C(=O)NC2CCCNCC2)O1` (stereo partly drawn) [Example 6, (2R,6R)-N-(azepan-4-yl)-4-(7-cyanopyrazolo[1,5-a]pyridin-4-yl)-6-methyl-morpholine-2-carboxamide], the half-inhibitory concentration (IC50) was 4.8 µM. On to `C[C@@H]1CN(c2ccc(C#N)n3nccc23)C[C@H](C(=O)NCC2CN(C)CCO2)O1` (stereo partly drawn) [Example 7, (2R,6R)-4-(7-cyanopyrazolo[1,5-a]pyridin-4-yl)-6-methyl-N-[(4-methylmorpholin-2-yl)methyl]morpholine-2-carboxamide], for which the IC50 is 58 µM. Take `C[C@@H]1CN(c2ccc(C#N)n3nccc23)C[C@H](C(=O)N2CC(N)C2)O1` [Example 8, 4-[(2R,6R)-2-(3-aminoazetidine-1-carbonyl)-6-methyl-morpholin-4-yl]pyrazolo[1,5a]pyridine-7-carbonitrile]: the IC50 was 70 µM.

`COCCNC(=O)[C@H]1CN(c2ccc(C#N)n3nccc23)C[C@@H](C)O1` [Example 9, (2R,6R)-4-(7-cyanopyrazolo[1,5-a]pyridin-4-yl)-N-(2-methoxyethyl)-6-methyl-morpholine-2-carboxamide]: the 50% inhibitory concentration (IC50) is > 100 µM. In the case of `C[C@@H]1CN(c2ccc(C#N)n3nccc23)C[C@H](C(=O)NC23CC4CC(CC(C4)C2)C3)O1` [Example 12, (2R,6R)-N-(1-adamantyl)-4-(7-cyanopyrazolo[1,5-a]pyridin-4-yl)-6-methyl-morpholine-2-carboxamide], the IC50 worked out at 42 µM.

Consider `CCC(O)CNC(=O)[C@H]1CN(c2ccc(C#N)n3nccc23)C[C@@H](C)O1` (stereo partly drawn) [Example 13, (2R,6R)-4-(7-cyanopyrazolo[1,5-a]pyridin-4-yl)-N-(2-hydroxybutyl)-6-methyl-morpholine-2-carboxamide], for which the IC50 is > 100 µM.

`C[C@@H]1CN(c2ccc(C#N)n3nccc23)C[C@H](C(=O)NC2CC3CCCC(C2)N3)O1` (stereo partly drawn) [Example 14, (2R,6R)-N-(9-azabicyclo[3.3.1]nonan-3-yl)-4-(7-cyanopyrazolo[1,5-a]pyridin-4-yl)-6-methyl-morpholine-2-carboxamide]: the IC50 was determined as 1.6 µM.

For the compound `C[C@@H]1CN(c2ccc(C#N)n3nccc23)C[C@H](C(=O)NC23CC(CO)(C2)C3)O1` [Example 15, (2R,6R)-4-(7-cyanopyrazolo[1,5-a]pyridin-4-yl)-N-[3-(hydroxymethyl)-1-bicyclo[1.1.1]pentanyl]-6-methyl-morpholine-2-carboxamide], the IC50 is > 100 µM. Turning to `C[C@@H]1CN(c2ccc(C#N)n3nccc23)C[C@H](C(=O)NC(C)(C)CO)O1` [Example 16, (2R,6R)-4-(7-cyanopyrazolo[1,5-a]pyridin-4-yl)-N-(2-hydroxy-1,1-dimethyl-ethyl)-6-methyl-morpholine-2-carboxamide], the IC50 is > 100 µM. For `CCC(C)(C)NC(=O)[C@H]1CN(c2ccc(C#N)n3nccc23)C[C@@H](C)O1` [Example 17, (2R,6R)-4-(7-cyanopyrazolo[1,5-a]pyridin-4-yl)-N-(1,1-dimethylpropyl)-6-methyl-morpholine-2-carboxamide], the half-maximal inhibitory concentration (IC50) stood at 33 µM.

With `C[C@@H]1CN(c2ccc(C#N)n3nccc23)C[C@H](C(=O)NCC2CNCC2(F)F)O1` (stereo partly drawn) [Example 18, (2R,6R)-4-(7-cyanopyrazolo[1,5-a]pyridin-4-yl)-N-[(4,4-difluoropyrrolidin-3-yl)methyl]-6-methyl-morpholine-2-carboxamide], the IC50 is > 100 µM. For `C[C@@H]1CN(c2ccc(C#N)n3nccc23)C[C@H](C(=O)NC2(C)CCNCC2)O1` [Example 19, (2R,6R)-4-(7-cyanopyrazolo[1,5-a]pyridin-4-yl)-6-methyl-N-(4-methyl-4-piperidyl)morpholine-2-carboxamide], the concentration for half-maximal inhibition (IC50) turned out to be 16 µM. As for `C[C@@H]1CN(c2ccc(C#N)n3nccc23)C[C@H](C(=O)N[C@H]2CC[C@@H](O)CC2)O1` [Example 20, Cis-(2R,6R)-4-(7-cyanopyrazolo[1,5-a]pyridin-4-yl)-N-(4-hydroxycyclohexyl)-6-methyl-morpholine-2-carboxamide], the IC50 came out at 71 µM.

For `C[C@@H]1CN(c2ccc(C#N)n3nccc23)C[C@H](C(=O)N[C@H]2CC[C@H](O)CC2)O1` [Example 21, Trans-(2R,6R)-4-(7-cyanopyrazolo[1,5-a]pyridin-4-yl)-N-(4-hydroxycyclohexyl)-6-methyl-morpholine-2-carboxamide], the IC50 is > 100 µM. With `C[C@@H]1CN(c2ccc(C#N)n3nccc23)C[C@H](C(=O)NC2CC3COCC(C2)N3)O1` (stereo partly drawn) [Example 22, Endo-(2R,6R)-4-(7-cyanopyrazolo[1,5-a]pyridin-4-yl)-6-methyl-N-[3-oxa-9-azabicyclo[3.3.1]nonan-7-yl]morpholine-2-carboxamide], the IC50 is 18 µM. Then `C[C@@H]1CN(c2ccc(C#N)n3nccc23)C[C@H](C(=O)NC2CC3CCC(C2)N3)O1` (stereo partly drawn) [Example 23, Exo-(2R,6R)-N-[8-azabicyclo[3.2.1]octan-3-yl]-4-(7-cyanopyrazolo[1,5-a]pyridin-4-yl)-6-methyl-morpholine-2-carboxamide], with > 100 µM; and `C[C@@H]1CN(c2ccc(C#N)n3nccc23)C[C@H](C(=O)NC2CCNCC2)O1` [Example 24, (2R,6R)-4-(7-cyanopyrazolo[1,5-a]pyridin-4-yl)-6-methyl-N-(4-piperidyl)morpholine-2-carboxamide], with 13 µM. Consider `C[C@@H]1CN(c2ccc(C#N)n3nccc23)C[C@H](C(=O)NC2CCNC2)O1` (stereo partly drawn) [Example 25, (2R,6R)-4-(7-cyanopyrazolo[1,5-a]pyridin-4-yl)-6-methyl-N-pyrrolidin-3-yl-morpholine-2-carboxamide], for which the half-inhibitory concentration (IC50) came out at 25 µM.

For the origin of these results see patent publication US12252484B2, “Pyrazolopyridine compounds for the treatment of autoimmune disease” (Hoffmann-La Roche Inc., priority 2018, dated 2025).
